{
  "source": "patent US12195490B2",
  "about": "“STRAD-binding agents and uses thereof” (The Regents of the University of California, priority 2020, dated 2025)",
  "data": [
    {"test_system": "ACHN cell line", "assay": "drug screen of the SelleckChem kinase inhibitor library with and without 5 uM SU-329, Cell-Titer Glo after 5 days", "type": "cell-based", "conditions": "kinase inhibitor at 200 nM with and without 5 uM SU329; ACHN cell line; 5 days; Cell-Titer Glo", "values": [
      {"smiles": "Cc1nc(N)sc1-c1ccnc(Nc2ccc(N3CCOCC3)cc2)n1", "note": "[CYC116]", "log2fc": "−0.814"},
      {"smiles": "O=C(O)c1ccc(-c2c[nH]c3ncc(-c4ccccc4)cc23)cc1C1CCCC1", "note": "[GSK650394]", "log2fc": 0.3205},
      {"smiles": "Oc1cccc(-c2nc(N3CCOCC3)c3oc4ncccc4c3n2)c1", "note": "[PI-103]", "log2fc": "−1.021"},
      {"smiles": "Cl.Cl.O=S(=O)(NCCNC/C=C/c1ccc(Br)cc1)c1cccc2cnccc12", "note": "[H 89 2HCl]", "log2fc": "−0.01404"},
      {"smiles": "COc1ccc2c(Oc3ccc(NC(=O)c4c(C)n(CC(C)(C)O)n(-c5ccccc5)c4=O)nc3)ccnc2c1", "note": "[AMG-458]", "log2fc": 0.0395},
      {"smiles": "C[C@@H]1CN(CC(=O)Nc2ccc3c(c2)Cc2cccc(-c4cc(=O)cc(N5CCOCC5)o4)c2S3)C[C@H](C)O1", "note": "[KU-60019]", "log2fc": 0.886},
      {"smiles": "CNCc1ccc(-c2cc(-c3nc(-c4ccc(S(=O)(=O)C(C)C)cc4)cnc3N)on2)cc1", "note": "[VE-822]", "log2fc": 0.3083},
      {"smiles": "Cc1cc(C(=O)NOCCO)c(Nc2ccc(I)cc2F)n(C)c1=O", "note": "[AZD8330]", "log2fc": 0.5935},
      {"smiles": "Cc1cc(N2CCOCC2)cc2[nH]c(-c3c(NC[C@@H](O)c4cccc(Cl)c4)cc[nH]c3=O)nc12", "note": "[BMS-536924]", "log2fc": 0.4161},
      {"smiles": "O=C1NC(=O)C(c2cnc3ccccn23)=C1c1cn2c3c(cc(F)cc13)CN(C(=O)N1CCCCC1)CC2", "note": "[LY2090314]", "log2fc": 1.91},
      {"smiles": "CC(C)(C)c1cc(C=C(C#N)C#N)cc(C(C)(C)C)c1O", "note": "[Tyrphostin 9]", "log2fc": "−0.5358"},
      {"smiles": "CCN1CCN(C(=O)Cc2ccc(Nc3ncc(F)c(Nc4ccc(C(=O)Nc5ccccc5Cl)cc4)n3)cc2)CC1", "note": "[Aurora A Inhibitor I]", "log2fc": "−0.1962"},
      {"smiles": "Cn1ncc(Cl)c1-c1cc(C(=O)N[C@H](CN)Cc2ccc(F)c(F)c2)oc1Cl", "note": "[Uprosertib (GSK2141795)]", "log2fc": "−1.387"},
      {"smiles": "C=CC(=O)N1CCC[C@@H](n2nc(-c3ccc(Oc4ccccc4)cc3)c3c(N)ncnc32)C1", "note": "[Ibrutinib (PCI-32765)]", "log2fc": 1.289},
      {"smiles": "COc1cc2ncnc(Nc3ccc(Cl)cc3F)c2cc1OC", "note": "[ZM 306416]", "log2fc": 0.5807},
      {"smiles": "O=C(NOCC(O)CO)c1cc(Br)c(F)c(F)c1Nc1ccc(I)cc1F", "note": "(stereo not drawn) [PD318088]", "log2fc": 0.4184},
      {"smiles": "CC(C)c1cnn2c(NCc3ccccc3)cc(NCCCCCCN)nc12.Cl", "note": "[BS-181 HCl]", "log2fc": 0.09476},
      {"smiles": "Cc1ccc(C(=O)Nc2ccc(CN3CCN(C)CC3)c(C(F)(F)F)c2)cc1C#Cc1cnc2cccnn12", "note": "[Ponatinib (AP24534)]", "log2fc": "−0.4485"},
      {"smiles": "CC[C@H](CO)Nc1nc(NCc2ccccc2)c2ncn(C(C)C)c2n1", "note": "[Roscovitine (Seliciclib, CYC202)]", "log2fc": 0.5993},
      {"smiles": "Cc1cnc(NC(=O)Nc2cc(Br)c(C)cc2OC[C@@H]2CNCCO2)cn1", "note": "[LY2603618]", "log2fc": "−0.1739"},
      {"smiles": "Cc1cc(Nc2ncc(Cl)c(Nc3ccccc3S(=O)(=O)C(C)C)n2)c(OC(C)C)cc1C1CCNCC1", "note": "[Ceritinib (LDK378)]", "log2fc": 0.2988},
      {"smiles": "CN1CCN(c2nc(C3=C(c4c[nH]c5ccccc45)C(=O)NC3=O)c3ccccc3n2)CC1", "note": "[Sotrastaurin]", "log2fc": 0.054},
      {"smiles": "O=C1Nc2ccccc2/C1=C1/Nc2ccccc2C1=O", "note": "[Indirubin]", "log2fc": "−1.247"},
      {"smiles": "C=CC(=O)Nc1ccc2ncnc(Nc3cccc(Br)c3)c2c1", "note": "[PD168393]", "log2fc": 0.5991},
      {"smiles": "N#Cc1ccc2[nH]c(O)c(-c3ccc(CN4CCOCC4)cn3)c2c1", "note": "[AZD1080]", "log2fc": 1.953},
      {"smiles": "Cc1ccc(-n2nc(C(C)(C)C)cc2NC(=O)Nc2ccc(OCCN3CCOCC3)c3ccccc23)cc1", "note": "[Doramapimod (BIRB 796)]", "log2fc": "−0.5477"},
      {"smiles": "COc1cc2ncnc(Oc3ccc(CC(=O)Nc4cnn(C(C)C)c4)cc3)c2cc1OC", "note": "[AZD2932]", "log2fc": 0.4428},
      {"smiles": "C=CC(=O)Nc1ccc2ncnc(Nc3ccc(OCc4cccc(F)c4)c(Cl)c3)c2c1", "note": "[AST-1306, reference compound]", "log2fc": 0.0584},
      {"smiles": "O=C(NC[C@H](O)CO)c1ccncc1Nc1ccc(I)cc1F", "note": "[Pimasertib (AS-703026), AS703026, reference compound]", "log2fc": 0.3252},
      {"smiles": "C=CC(=O)Nc1cccc(Sc2nc(Nc3ccc(N4CCN(C)CC4)cc3)ncc2Cl)c1", "note": "[WZ8040, reference compound]", "log2fc": 0.02092}
    ]}
  ]
}
